Consider 6 molecules from patent US9877938B2 (priority 2014, dated 2018).

Data set [1] concerns plasma. Nature of the data set: Anticoagulant activity: activated partial thromboplastin time (aPTT), Sysmex CA-1500. In kind it is biochemical, human. The conditions noted are these: Table 4; 20 μl sample + 80 μl plasma; test material g/dL as in label; Asp 7.5 mg/ml; N=3. As for the experimental part: (§1) Antithrombotic (anticoagulant) activity was evaluated according to a previously reported method. Each of thromborel S, actin and thrombin, which are reagents for Sysmex CA-1500 for analysis of PT, aPTT and TT, was mounted in Sysmex CA-1500 (Siemens Healthcare, Germany) which is an automated blood coagulation test device. According to the automated procedure of the test device, clotting time (sec) (prothrombin time (PT), activated partial thromboplastin time (aPTT) and thrombin time (TT)) was measured. A sufficient amount of a sample for each of the three analyses was about 400 uL of an 80:20 mixture of plasma and a test substance.
(§2) The isolated plasma was used in an experiment in a fresh state within 5-6 hours.
(§3) In this experiment, for the relative comparison of the measured clotting time (sec) (PT, aPTT and TT) between test groups, clotting time prolongation (%) relative to triple distilled water (purified water) that is a normal control test sample was statistically analyzed. For statistical analysis, the […] anticoagulant activities of test materials were comparatively analyzed using SPSS IBM version 21.0 by one-way ANOVA at p<0.05, and significance comparison between groups was performed by Duncan's test.
The aspirin solution was immediately used at room temperature in a light-shielded state or was cold-stored. […]

Data set [2] concerns plasma. Put plainly: Anticoagulant activity: prothrombin time (PT), Sysmex CA-1500. The conditions noted are these: 20 μl sample + 80 μl plasma, test material g/dL as in label, Asp 7.5 mg/ml, N=3. In kind it is biochemical, human. As for the experimental part: as §1, §2, §3
The aspirin solution was immediately used at room temperature in a light-shielded state or was cold-stored.
As a control, aspirin was used, and as a vehicle control, triple distilled water (purified water) was used instead of the sample.

Data set [3] relates to male mice (C57BL/6) fed high-fat diet. Put plainly: Body weight and body weight gain of high-fat diet mice. It counts as in vivo. The conditions noted are these: for Body weight gain, Mean: HFD mice, metformin 250 mg/kg; for Body weight gain: mean; for body weight gain compared to high-fat diet (HFD) alone (in words): at 8 weeks after HFD feeding. As for the experimental part: (§4) Using 8-week-old male mice (C57BL/6) (purchased from CoreTech), anti-diabetic candidate materials were evaluated using a GTT (Glucose Tolerance Test) that is a typical method for diagnosis of diabetes.
(§5) Mice were housed at a temperature of 22±2° C. and a relative humidity of 55-60% with 12-hr light/12-hr dark cycles. Five animals were allotted to each group, and mice from the same mother were grouped into one group, because male mice tend to fight together.
(§6) As feed, high-fat diet (60% of calories from fat; Research Diet Inc., New Brunswick, N.J.) and water were fed ad libitum for 10 weeks. Herein, the water fed contained the samples prepared in Examples 1-2 (3), 2-1, 2-4-1, 2-4-2 and 2-5. As a positive control, metformin (M-072, Sigma) (250 mg/kg) was used, and as a control, the samples prepared in Comparative Examples 1-1, 2-3-2, 2-5-1, 2-5-2 and 2-6 were used.
(§7) For reference, each of the samples prepared in Examples 2-4-1, 2-4-2 and 2-5 was set to the amount to be taken by an adult (60 kg) for 3 days, and the amount was converted into a mouse dose (12-fold/kg, see the US NIH guidance), thereby preparing animal feed. Namely, the amount to be taken by an adult (60 kg) for 3 days is 180-day dose/kg, which corresponds to 15-day dose/kg for mice. Thus, the amount corresponds to 750-day dose/mouse (20 g), because the average weight of mice is about 20 g. Thus, one mouse was allowed to take 1/750 of the prepared sample each day.
(§8) In addition, each of the samples prepared in Examples 1-2 (3) and 2-1 was set to the amount to be taken by an adult (60 kg) for 2 days, and the amount was converted into a mouse dose (12-fold/kg, see the US NIH guidance), thereby preparing animal feed. Namely, the amount to be taken by an adult (60 kg) for 2 days is 120-day dose/kg, which corresponds to 10-day dose/kg for mice. Thus, the amount corresponds to 500-day dose/mouse (20 g), because the average weight of mice is about 20 g. Thus, one mouse was allowed to take 1/500 of the prepared sample each day.
The diet intake and the body weight gain were measured weekly for 8 weeks. The body weight and the diet intake were measured immediately before first drug administration, and then measured at one-week intervals.
(§9) Meanwhile, experimental analysis results were expressed as mean±S.E.M., and the significance between test groups was statistically processed using Student T-TEST, and then the significance was verified at *P<0.05.

For data set [4] the test system is unchanged. Nature of the data set: Histological examination of liver, WAT, BAT and kidney. In kind it is in vivo. The conditions noted are these: HFD mice, 10 weeks. As for the experimental part:
as §6
(§10) At 10 weeks of high-fat diet feeding, the mice were sacrificed by cervical dislocation to obtain serum. For histological examination, the liver, white adipose tissue (WAT), brown adipose tissue (BAT) and kidney were fixed with formalin (50-00-0, Junsei, Japan), and the remaining organs were stored at −70° C. The blood sampled from the heart was coagulated to obtain serum which was then stored at −70° C.
For histological examination, the major organs and adipose were fixed in 4% neutral buffered formalin and embedded in paraffin blocks, and the paraffin blocks were sectioned at 5 μm and stained with hymatoxylin (MHS-16, Sigma-Aldrich, USA) and eosin (HT110116, Sigma-Aldrich). The prepared tissue samples were mounted in glycerin gel mounting media (SP15-100, Fisher Scientific, USA), covered with cover glass, and observed with a microscope (IX71, OLYMPUS, USA). The tissue was imaged with the camera equipped in the microscope.

Data set [5] shares this test system. Nature of the data set: Blood biochemistry (triglyceride, AST, ALT) in high-fat diet mice. It counts as in vivo. The method, then: as §6, §7, §8
In blood biochemistry, insulin (AKRIN-011T, Shibayagi, Japan), glucose (AM202, Asan Pharmaceutical Co., Ltd., Korea), triglyceride (AM157, Asan Pharmaceutical Co., Ltd.), total cholesterol (AM202, Asan Pharmaceutical Co., Ltd.), AST and ALT (Asan Pharmaceutical Co., Ltd.) were analyzed using enzymatic assay kits.
as §10, §9

Data set [6] has the same test system. Put plainly: Glucose tolerance test (GTT) in high-fat diet mice. It counts as in vivo. As to conditions: for fasting glucose level (in words) / glucose control ability in GTT compared with HFD alone (in words): 8 weeks of HFD; for fasting glucose level (in words): 8 h fasting, compared with HFD alone, normal mice or other group; for glucose control ability in GTT compared with HFD alone (in words): glucose 1 g/kg i.p.; for Glucose level: mean. As for the experimental part:
as §4, §5, §6, §7, §8
At 8 weeks of high-fat diet feeding, a glucose tolerance test (GTT) was performed. For 8 hours for the test, mice were fasted. Then, blood was sampled from the tail vein, and initial blood glucose levels were measured with a blood glucose meter (AUTO-CHEK, Diatech Korea). Then, glucose was administered intraperitoneally to the mice at a concentration of 1 g/kg, and after 30 min, 60 min, 90 min and 120 min, blood was sampled from the mice, followed by measurement of blood glucose levels (each group consisting of five animals).
as §9

[7] abbreviates: 8 weeks, sample in drinking water (1/500 per day), Tables 6, 9, 12.
The mark [8] stands for this setting: HFD mice serum, compared with reference diet, HFD or other group.

The structures appear in SMILES notation.

Take `O=C(CO)[C@@H](O)[C@H](O)[C@H](O)CO` [Fruc 12.4, fructose]: in the data set on plasma [1], the “aPTT clotting time prolongation relative to purified water, Mean” value amounted to 0.58%. For the same molecule, the “PT clotting time prolongation relative to purified water, Mean” value in the data set with plasma [2] (Table 4) worked out at 0.54%.
On to `CN(C)C(=N)N=C(N)N` [Metformin, metformin], for which the “Body weight gain, Mean” value was determined as 2.445 g in data set [3] (1 week, Table 15 experiment, sample in drinking water (1/750 per day)); 4.600 g in data set [3] (4 weeks, Table 15 experiment, sample in drinking water (1/750 per day)); 8.238 g in data set [3] (8 weeks, Table 15 experiment, sample in drinking water (1/750 per day)). Further, the Body weight gain in data set [3] (2 weeks) was 2.503 g; in data set [3] (3 weeks), 4.020 g; in data set [3] (4 weeks), 4.600 g; in data set [3] (5 weeks), 6.093 g; in data set [3] (6 weeks) it was 7.250 g; in data set [3] (7 weeks) it was 6.263 g.
For the molecule `CC(=O)Oc1ccccc1C(=O)O` [Asp, aspirin], the “PT clotting time prolongation relative to purified water, Mean” value in the data set with plasma [2] (Table 2) amounted to 9.90%.
With `NCCS(=O)(=O)O` [DT15], the “accumulation of adipose in brown adipose tissue (histology)” value in data set [4] was “decreased”. Besides, the “development of fatty liver (histology)” value in data set [4] is reported as “decreased”. Moreover, the “nephrotoxicity (histology)” value in data set [4] (kidney) is “did not appear”. Moreover, the “Body weight gain, Mean” value in data set [3] (2 weeks, sample in drinking water (1/500 per day), Tables 6, 9, 12) is 4.40 g; in data set [3] (setting [7]), 11.58 g. Moreover, the “body weight gain compared to high-fat diet (HFD) alone (in words)” value in data set [3] is reported as “significant reduction in body weight gain”. Besides, the “triglyceride level (in words)” value in data set [5] (HFD mice serum, compared with normal/reference diet or other group) is “significantly lower than that of DT19”. The “ALT level (in words)” value in data set [5] (setting [8]) is listed as “lower than those of DT19”. The “AST level (in words)” value in data set [5] (setting [8]) is listed as “lower than those of DT19”. Further, in data set [5] (blood, mean), the ALT level came out at 14.02 IU/L. Also, in data set [5] (blood, mean), the AST level was 98.96 IU/L. In data set [5] (blood, mean), this molecule came in with a Triglyceride level of 53.62 mg/dL. Besides, the “fasting glucose level (in words)” value in data set [6] was “lower than that of the mice administered with high-fat diet (HFD), and were similar to the blood glucose levels of normal mice”. Also, the “glucose control ability in GTT compared with HFD alone (in words)” value in data set [6] is listed as “significantly higher than that of the group administered with HFD alone”. Moreover, the Glucose level in data set [6] (GTT 0 min (fasting)) was 121.25 mg/dL; in data set [6] (GTT 30 min), 335.25 mg/dL; in data set [6] (GTT 60 min), 295.25 mg/dL; in data set [6] (GTT 90 min), 193.75 mg/dL; in data set [6] (GTT 120 min), 126.25 mg/dL.
As to `NCCS(=O)(=O)O` [DT19, taurine, reference compound], the “Body weight gain, Mean” value in data set [3] (setting [7]) stood at 9.52 g. In data set [3], the “body weight gain compared to high-fat diet (HFD) alone (in words)” value is given as “significant reduction in body weight gain”. In data set [6], the “fasting glucose level (in words)” value was “lower than that of the mice administered with high-fat diet (HFD), and were similar to the blood glucose levels of normal mice”; the “glucose control ability in GTT compared with HFD alone (in words)” value is reported as “significantly higher than that of the group administered with HFD alone”.
As for `O=C(CO)[C@@H](O)[C@H](O)[C@H](O)CO` [Fruc 6.2, fructose], the “aPTT clotting time prolongation relative to purified water, Mean” value in the data set with plasma [1] is recorded as −0.20%. Besides, the “PT clotting time prolongation relative to purified water, Mean” value with plasma [2] (Table 4) is 0.54%.
